From patent publication US10821152B2, “Methods, agents and compositions for treatment of inflammatory conditions” (Betanien Hospital, priority 2014, dated 2020)
Where “and” joins values, the source holds several entries; their conditions need not be identical. Equal values may be shown once. Non-standard residues stand in square brackets, D forms with d. Residues, ends and D or L forms follow the SMILES beside them. *: point of attachment. dPhe(4-NHCONH2) = NC(=O)Nc1ccc(C[C@@H](N)C(=O)O)cc1; Dihydroorotyl(S) = O=C1C[C@@H](C(=O)*)NC(=O)N1; dPhe(4-Cl) = N[C@H](Cc1ccc(Cl)cc1)C(=O)O; Phe(4-NH2) = Nc1ccc(C[C@H](N)C(=O)O)cc1; d2Nal = N[C@H](Cc1ccc2ccccc2c1)C(=O)O; Lys(iPr) = CC(C)NCCCC[C@H](N)C(=O)O; d3Pal = N[C@H](Cc1cccnc1)C(=O)O

What was measured:
Assay type in all cases: in vivo, human
[1] = system: patient with seropositive rheumatoid arthritis; test: Treatment of RA using Degarelix 40 mg weekly
Procedure: • person with seropositive rheumatoid arthritis with disease duration of 22 years. • Fulfilled ACR 2010 classification criteria for rheumatoid arthritis. Experimental Treatment • Had tried most therapies available (for example: Humira, Remicade, Enbrel, Actemra, several disease modifying anti-rheumatic drugs), previously without effect or intolerable side effects. • Offered experimental GnRH antagonist therapy, Degarelix 40 mg every week with 240 mg loading dose at baseline. Assessment of Response • Disease activity score (DAS) reduction from 7.3 to 6.7 at 2 weeks. • A DAS reduction of 0.6 units is defined as a clinical response to treatment (1). • Their ESR has decreased from 62 mm to 38 mm, with a decrease in their CRP from 87 mg/L to 67 mg/L.

[2] = system: peripheral GnRH; test: Peripheral GnRH levels by ELISA in patients with autoimmune diseases
Description: (§1) We analysed peripheral GnRH levels in patients with various autoimmune diseases using ELISA. […] Due to the nature of ELISA assays, the concentration in pg/mL should not necessarily be regarded as absolute, and may be interpreted as relative.

[3] = as above; settings: RA Pt A
Description: as §1

[4] = system: patients with rheumatoid arthritis; test: Long term Degarelix treatment of rheumatoid arthritis patients: clinical variables; design: LH: unit not given beside the values
Description: [table] [table] […] Two examples of patients with continued RA improvement over several weeks despite stably low levels of LH

Q: With `CC(=O)N[C@H](Cc1ccc2ccccc2c1)C(=O)N[C@H](Cc1ccc(Cl)cc1)C(=O)N[C@H](Cc1cccnc1)C(=O)N[C@@H](CO)C(=O)N[C@@H](Cc1ccc(NC(=O)[C@@H]2CC(=O)NC(=O)N2)cc1)C(=O)N[C@H](Cc1ccc(NC(N)=O)cc1)C(=O)N[C@@H](CC(C)C)C(=O)N[C@@H](CCCCNC(C)C)C(=O)N1CCC[C@H]1C(=O)N[C@H](C)C(N)=O` [Degarelix] (Ac-[d2Nal][dPhe(4-Cl)][d3Pal]S[Phe(4-NH2)](Dihydroorotyl(S))[dPhe(4-NHCONH2)]L[Lys(iPr)]P[dA]-NH2) as the molecule, how does the “Disease activity score (DAS)” value ([1]; at 2 weeks, 240 mg loading, 40 mg weekly) read?
A: Its value is 6.7.

Q: And the CRP ([1]; baseline)?
A: The CRP was 87 mg/L.

Q: And the “Disease activity score (DAS)” value ([1]; baseline)?
A: The value was 7.3.

Q: And the ESR ([1]; baseline)?
A: Its ESR is 62 mm.

Q: And the CRP ([1]; on Degarelix 40 mg weekly)?
A: The CRP was 67 mg/L.

Q: What about the ESR ([1]; on Degarelix 40 mg weekly) of the same molecule?
A: Its ESR is 38 mm.

Q: And the “peripheral GnRH” value ([2]; Multiple Sclerosis Patient B, after 1 month)?
A: Its value is 210 pg/mL.

Q: What about the “peripheral GnRH” value ([2]; Multiple Sclerosis Patient B, baseline) of the same molecule?
A: Its value is 318 pg/mL.

Q: What about the “peripheral GnRH” value ([2]; Psoriasis Patient C, after 3 months) of the same molecule?
A: The value was 274 pg/mL.

Q: What about the “peripheral GnRH” value ([2]; Psoriasis Patient C, baseline) of the same molecule?
A: Its value is 300 pg/mL.

Q: What about the “peripheral GnRH” value ([2]; RA Pt A, after 3 months, 240 mg loading, 80 mg every 2 weeks) of the same molecule?
A: Its value is 359 pg/mL.

Q: And the “peripheral GnRH” value ([2]; RA Pt A, baseline)?
A: The value was 394 pg/mL.

Q: And the CRP ([3]; after 3 months)?
A: The CRP was 54 mg/L.

Q: And the DAS score ([3]; after 3 months)?
A: Its DAS score is 4.2.

Q: What about the CRP ([3]; baseline) of the same molecule?
A: The CRP was 142 mg/L.

Q: What about the DAS score ([3]; baseline) of the same molecule?
A: The DAS score was 8.6.

Q: And the ACR % response ([4]; RA Patient 3, 4 wks)?
A: The ACR % response was 30%.

Q: And the ESR ([4]; RA Patient 3, 4 wks)?
A: The ESR was 41.

Q: And the LH ([4]; RA Patient 3, 4 wks)?
A: The LH was <0.3.

Q: What about the ACR % response ([4]; RA Patient 3, 8 wks) of the same molecule?
A: Its ACR % response is 40%.

Q: And the ESR ([4]; RA Patient 3, 8 wks)?
A: The ESR was 36.

Q: And the LH ([4]; RA Patient 3, 8 wks)?
A: The LH was <0.3.

Q: And the ACR % response ([4]; RA Patient 3, 12 wks)?
A: Its ACR % response is 50%.

Q: And the ESR ([4]; RA Patient 3, 12 wks)?
A: The ESR was 20.

Q: What about the LH ([4]; RA Patient 3, 12 wks) of the same molecule?
A: Its LH is <0.3.

Q: And the ESR ([4]; RA Patient 3, baseline)?
A: Its ESR is 46.

Q: What about the LH ([4]; RA Patient 3, baseline) of the same molecule?
A: Its LH is 2.

Q: And the ACR % response ([4]; RA Patient 4, 3½ wks)?
A: The ACR % response was 20%.

Q: What about the ESR ([4]; RA Patient 4, 3½ wks) of the same molecule?
A: The ESR was 68.

Q: What about the LH ([4]; RA Patient 4, 3½ wks) of the same molecule?
A: The LH was <0.3.

Q: And the ACR % response ([4]; RA Patient 4, 9 wks)?
A: Its ACR % response is 50%.

Q: What about the ESR ([4]; RA Patient 4, 9 wks) of the same molecule?
A: The ESR was 36.

Q: What about the LH ([4]; RA Patient 4, 9 wks) of the same molecule?
A: The LH was <0.3.

Q: And the ESR ([4]; RA Patient 4, baseline)?
A: Its ESR is 78.

Q: And the LH ([4]; RA Patient 4, baseline)?
A: The LH was 8.

Q: What about the “power Doppler (inflammatory activity) on ultrasound, shoulder and right MCP 4” value ([4]; RA Patient 5, after treatment (FIG. 2B, 2D, 2F)) of the same molecule?
A: The value was “no power Doppler”.

Q: What about the “effusion over the right wrist on ultrasound” value ([4]; RA Patient 6, by 3.5 weeks (FIG. 4)) of the same molecule?
A: The value was “much smaller”.

Q: And the “Physician assessment (0-100)” value ([4]; baseline, c1-c6=RA Patients 1-6)?
A: Its value is 85 and 90 and 80 and 70.
